In PubChem BioAssay (NCI) one finds TGI and GI50 data, which are given here for 15 compounds.

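96-well plates; 48 h exposure; 5 concentrations. Endpoints by linear interpolation between flanking doses. Not reached: highest tested concentration assigned. GI50 is the concentration that inhibits growth by half. Definition used: TGI = concentration required for complete inhibition of growth.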 Where only a bound is given, the exact number is not on record here.

Some test systems named below: 786-0 renal; BT-549 breast; CCRF-CEM leukemia; EKVX NSCLC; K-562 leukemia; KM12 colon; PC-3 prostate; SF-295 CNS; SF-539 CNS.
Holding throughout (assay): inhibition of tumour cell growth, NCI panel, 48 h

With `CO[C@@H]1O[C@H](C(=O)c2ccccc2)[C@H]2OC(C)(C)O[C@@H]12`, the TGI in the assay with 786-0 renal, in the assay on BT-549 breast, with CCRF-CEM leukemia, with EKVX NSCLC, in the assay on K-562 leukemia and with KM12 colon was more than 100 µM in each case. In addition, the TGI in the assay with PC-3 prostate, with SF-295 CNS and in the assay on SF-539 CNS was more than 100 µM each time.

On to `CCOC(=O)c1cn2c(n1)sc1cc(Cl)cc(Cl)c12`, for which the TGI in the assay with 786-0 renal, with BT-549 breast, in the assay with CCRF-CEM leukemia, in the assay with EKVX NSCLC, with K-562 leukemia and in the assay with KM12 colon was more than 100 µM each time. The TGI in the assay with PC-3 prostate, in the assay on SF-295 CNS and with SF-539 CNS was more than 100 µM each time.

In the case of `Cc1ccc(/C=C2\Cc3c(C)cc(C)cc3C2=O)c(C(=O)O)c1`, the TGI in the assay on 786-0 renal, in the assay on BT-549 breast, in the assay on CCRF-CEM leukemia, in the assay on EKVX NSCLC, with K-562 leukemia and in the assay with KM12 colon was more than 100 µM in each case. Moreover, the values for the TGI in the assay on PC-3 prostate, with SF-295 CNS and in the assay on SF-539 CNS were more than 100 µM, more than 100 µM and 46.2 µM, respectively.

Take `Cc1ccc(C2=CC(=O)/C(=C\C(=O)c3ccc(Cl)cc3)O2)cc1`: the TGI in the assay with 786-0 renal is 21.6 µM; in the assay with BT-549 breast, 5.54 µM; in the assay with CCRF-CEM leukemia, more than 100 µM; with EKVX NSCLC it was more than 100 µM; in the assay with K-562 leukemia, 41.7 µM; with KM12 colon it was 42.9 µM. The TGI with PC-3 prostate was 12.2 µM; in the assay with SF-539 CNS it was 55.1 µM.

As to `COc1ccc(N(C(=O)Nc2ccc(Cl)c(Cl)c2)C2c3cccn3C(=O)N2c2ccc(Cl)c(Cl)c2)cc1` (stereo not given), the TGI in the assay on 786-0 renal, in the assay with BT-549 breast, in the assay on CCRF-CEM leukemia, in the assay on EKVX NSCLC, in the assay on K-562 leukemia and with KM12 colon was more than 100 µM in each case. The TGI in the assay with PC-3 prostate was more than 100 µM; in the assay on SF-295 CNS, 94.8 µM; in the assay with SF-539 CNS, more than 100 µM.

For `O=c1cc(N2CCCC2)[nH]c(=O)n1-c1ccccc1`, the TGI in the assay on 786-0 renal, with BT-549 breast, with CCRF-CEM leukemia, in the assay with EKVX NSCLC, with K-562 leukemia and with KM12 colon was more than 100 µM in each case. For the same compound, the TGI in the assay on PC-3 prostate, in the assay with SF-295 CNS and with SF-539 CNS was more than 100 µM in each case.

`CC1(C)[C@H]2CC[C@@]13C(=O)N1C(=O)O[C@@H]([C@H]1Cl)C(Cl)(COCc1ccccc1)C(=O)OCCO[C@H]3C2` (stereo not given in full): the TGI with 786-0 renal, in the assay on BT-549 breast, in the assay with CCRF-CEM leukemia, in the assay with EKVX NSCLC, in the assay with K-562 leukemia and in the assay with KM12 colon was more than 100 µM each time. For the same compound, the TGI in the assay with PC-3 prostate, in the assay on SF-295 CNS and in the assay with SF-539 CNS was more than 100 µM throughout.

For the compound `O=[N+]([O-])c1ccc2c(c1)C1=NN(c3ccccc3)C(c3ccccc3Br)C1CCC2` (stereo not given), the TGI in the assay on 786-0 renal was more than 50 µM; in the assay with BT-549 breast it was 35 µM; with CCRF-CEM leukemia, 27.4 µM; in the assay with EKVX NSCLC it was more than 50 µM; in the assay on K-562 leukemia, more than 50 µM; in the assay on KM12 colon it was more than 50 µM. For the same compound, the TGI in the assay with PC-3 prostate, in the assay on SF-295 CNS and in the assay on SF-539 CNS was more than 50 µM each time.

With `O=C(C(Cl)=C(N1CCOCC1)N1CCOCC1)C(Cl)Cl`, the TGI in the assay on 786-0 renal, with BT-549 breast, in the assay with CCRF-CEM leukemia, in the assay with EKVX NSCLC, in the assay on K-562 leukemia and in the assay on KM12 colon was more than 100 µM in each case. In addition, the TGI in the assay with PC-3 prostate and with SF-539 CNS was more than 100 µM throughout.

As to `CSc1n[nH]c(N)c1C(=O)Nc1ccccc1`, the TGI in the assay with 786-0 renal, in the assay on BT-549 breast, in the assay with CCRF-CEM leukemia, in the assay on EKVX NSCLC, in the assay on K-562 leukemia and in the assay on KM12 colon was more than 100 µM throughout. Besides, the TGI in the assay on PC-3 prostate and with SF-539 CNS was more than 100 µM in each case.

For `COc1ccc(CN2C3CC2CN(c2ccc(-c4cc(OCC(C)(C)O)cn5ncc(C#N)c45)cn2)C3)cn1`, the GI50 in the assay with BT-549 breast was 3.34 µM; in the assay on CCRF-CEM leukemia, 3.59 µM; in the assay with EKVX NSCLC, 6.9 µM; with K-562 leukemia, more than 100 µM; in the assay with KM12 colon, more than 100 µM; with PC-3 prostate, 16.3 µM. The GI50 is 5.27 µM in the assay on SF-295 CNS and 2.61 µM in the assay on SF-539 CNS. The TGI with BT-549 breast, in the assay with CCRF-CEM leukemia, in the assay on EKVX NSCLC, in the assay on K-562 leukemia, in the assay with KM12 colon and with PC-3 prostate was more than 100 µM in each case. For the same compound, the TGI is more than 100 µM in the assay on SF-295 CNS and 8.61 µM in the assay with SF-539 CNS.

Take `N#Cc1c(-c2ccccc2)cc(-c2ccc(Cl)cc2)[nH]c1=S`: the TGI with 786-0 renal is more than 100 µM; in the assay with BT-549 breast it was more than 100 µM; with CCRF-CEM leukemia it was 86 µM; in the assay with EKVX NSCLC it was 70.4 µM; in the assay with K-562 leukemia, more than 100 µM; with KM12 colon it was more than 100 µM. Besides, the TGI was more than 100 µM in the assay on PC-3 prostate and 83.7 µM with SF-295 CNS.

Turning to `CC12CCCC3(CC(=O)C(C)(C)C3C(=O)C1)C2` (stereo not given), the TGI in the assay on 786-0 renal, with BT-549 breast, in the assay on CCRF-CEM leukemia, with EKVX NSCLC, with K-562 leukemia and with KM12 colon was more than 100 µM each time. For the same compound, the TGI in the assay on PC-3 prostate and with SF-295 CNS was more than 100 µM each time.

In the case of `CC(C(=O)O)C(C)(O)C(=O)O` (stereo not given), the TGI in the assay on 786-0 renal, in the assay on BT-549 breast, with CCRF-CEM leukemia, with EKVX NSCLC, in the assay on K-562 leukemia and in the assay with KM12 colon was more than 100 µM throughout. For the same compound, the TGI in the assay on PC-3 prostate and in the assay on SF-539 CNS was more than 100 µM each time.

Take `CCOC(=O)c1nc2cc(C(F)(F)F)ccc2nc1Nc1ccc(C(=O)NC(C(=O)OCC)C(=O)OCC)cc1`: the TGI in the assay on 786-0 renal is 27.6 µM; in the assay with BT-549 breast, 51.6 µM; with CCRF-CEM leukemia, more than 100 µM; in the assay with EKVX NSCLC it was 66.2 µM; in the assay on K-562 leukemia it was more than 100 µM; in the assay with KM12 colon, more than 100 µM. Also, the TGI in the assay with PC-3 prostate was more than 100 µM; in the assay on SF-295 CNS, 30.8 µM.
